Measurements taken from ChEMBL document CHEMBL3885881, “DrugMatrix”.

Species: Rattus norvegicus
Assay: DrugMatrix - Regimen: Daily Repeat
Assay type: toxicity, organism-based, Sprague-Dawley
Parameters: regimen Daily Repeat, gender Male, age 6-8 weeks
Conditions: in vivo, route none, vehicle 100 % UNTREATED; for BASOPHIL / ERYTHROCYTE COUNT / HEMATOCRIT / HEMOGLOBIN / LEUKOCYTE COUNT / LYMPHOCYTE / MEAN CORPUSCULAR HEMOGLOBIN / MEAN CORPUSCULAR HEMOGLOBIN CONCENTRATION / MONOCYTE / NEUTROPHIL / NUCLEATED RED BLOOD CELLS / PLATELET COUNT / ABSOLUTE BASOPHIL / ABSOLUTE EOSINOPHIL / ABSOLUTE LYMPHOCYTE / ABSOLUTE MONOCYTE / ABSOLUTE SEGMENTED NEUTROPHIL / EOSINOPHIL / MEAN CORPUSCULAR VOLUME: tissue Blood
[1] = 60 mg/kg, 120 h, dose level M1, time 5 day
[2] = 60 mg/kg, 120 h, tissue Plasma, dose level M1, time 5 day
[3] = 60 mg/kg, […], dose level M1, time 14 day
[4] = 60 mg/kg, […], tissue Plasma, dose level M1, time 14 day
[5] = 75 mg/kg, 120 h, dose level High, time 5 day
[6] = 75 mg/kg, 120 h, tissue Plasma, dose level High, time 5 day
[7] = 75 mg/kg, […], dose level High, time 14 day
[8] = 75 mg/kg, […], tissue Plasma, dose level High, time 14 day

Diet_Restriction
BASOPHIL [1]: 0%
ERYTHROCYTE COUNT [1]: 5.22 x10E6/uL
HEMATOCRIT [1]: 32.2%
HEMOGLOBIN [1]: 11.93 G/DL
LEUKOCYTE COUNT [1]: 4.3 x10E3/uL
LYMPHOCYTE [1]: 87.33%
MEAN CORPUSCULAR HEMOGLOBIN [1]: 22.9 pg
MEAN CORPUSCULAR HEMOGLOBIN CONCENTRATION [1]: 37.1 G/DL
MONOCYTE [1]: 0.67%
NEUTROPHIL [1]: 10.67%
NUCLEATED RED BLOOD CELLS [1]: 0 /100WBC
PLATELET COUNT [1]: 765.33 x10E3/uL
ALANINE AMINOTRANSFERASE [2]: 32.33 u/L
ALBUMIN [2]: 4.3 G/DL
ALKALINE PHOSPHATASE [2]: 267.33 u/L
ASPARTATE AMINOTRANSFERASE [2]: 64.33 u/L
BLOOD UREA NITROGEN [2]: 6.33 mg/dL
CARBON DIOXIDE [2]: 31.33 mmol/L
CHOLESTEROL [2]: 52 mg/dL
CREATINE PHOSPHOKINASE [2]: 263 u/L
CREATININE [2]: 0.14 mg/dL
GLUCOSE [2]: 137.33 mg/dL
LACTATE DEHYDROGENASE [2]: 96 u/L
PHOSPHORUS [2]: 10.27 mg/dL
POTASSIUM [2]: 5.6 MEQ/L
TOTAL BILIRUBIN [2]: 0.1 mg/dL
TOTAL PROTEIN [2]: 5.93 G/DL
ABSOLUTE BASOPHIL [3]: 0 CELLS/uL
ABSOLUTE EOSINOPHIL [3]: 64 CELLS/uL
ABSOLUTE LYMPHOCYTE [3]: 14236 CELLS/uL
ABSOLUTE MONOCYTE [3]: 39.33 CELLS/uL
ABSOLUTE SEGMENTED NEUTROPHIL [3]: 894 CELLS/uL
BASOPHIL [3]: 0%
EOSINOPHIL [3]: 0.33%
ERYTHROCYTE COUNT [3]: 6.6 x10E6/uL
HEMATOCRIT [3]: 37.43%
LEUKOCYTE COUNT [3]: 15.23 x10E3/uL
LYMPHOCYTE [3]: 92.67%
MEAN CORPUSCULAR HEMOGLOBIN [3]: 21.37 pg
MEAN CORPUSCULAR HEMOGLOBIN CONCENTRATION [3]: 37.67 G/DL
MEAN CORPUSCULAR VOLUME [3]: 56.73 fL
MONOCYTE [3]: 0.33%
NEUTROPHIL [3]: 6.67%
NUCLEATED RED BLOOD CELLS [3]: 0 /100WBC
PLATELET COUNT [3]: 800.67 x10E3/uL
ALANINE AMINOTRANSFERASE [4]: 47 u/L
ALBUMIN [4]: 4.4 G/DL
ALKALINE PHOSPHATASE [4]: 256 u/L
ASPARTATE AMINOTRANSFERASE [4]: 114.33 u/L
BLOOD UREA NITROGEN [4]: 15 mg/dL
CARBON DIOXIDE [4]: 25 mmol/L
CHOLESTEROL [4]: 65 mg/dL
CREATINE PHOSPHOKINASE [4]: 1426.33 u/L
CREATININE [4]: 0.23 mg/dL
GLUCOSE [4]: 165.33 mg/dL
LACTATE DEHYDROGENASE [4]: 131.33 u/L
LIPASE [4]: 12 u/L
PHOSPHORUS [4]: 11.63 mg/dL
POTASSIUM [4]: 5.69 MEQ/L
TOTAL BILIRUBIN [4]: 0.17 mg/dL
TOTAL PROTEIN [4]: 6.17 G/DL
ABSOLUTE BASOPHIL [5]: 0 CELLS/uL
ABSOLUTE EOSINOPHIL [5]: 35.33 CELLS/uL
ABSOLUTE LYMPHOCYTE [5]: 3939.33 CELLS/uL
ABSOLUTE MONOCYTE [5]: 67.67 CELLS/uL
ABSOLUTE SEGMENTED NEUTROPHIL [5]: 957.67 CELLS/uL
BASOPHIL [5]: 0%
EOSINOPHIL [5]: 0.67%
ERYTHROCYTE COUNT [5]: 5.54 x10E6/uL
HEMATOCRIT [5]: 33.63%
HEMOGLOBIN [5]: 12.8 G/DL
LEUKOCYTE COUNT [5]: 5 x10E3/uL
LYMPHOCYTE [5]: 79%
MEAN CORPUSCULAR HEMOGLOBIN [5]: 23.13 pg
MEAN CORPUSCULAR HEMOGLOBIN CONCENTRATION [5]: 38.07 G/DL
NEUTROPHIL [5]: 19%
NUCLEATED RED BLOOD CELLS [5]: 0 /100WBC
PLATELET COUNT [5]: 1074.67 x10E3/uL
ALANINE AMINOTRANSFERASE [6]: 49.33 u/L
ALBUMIN [6]: 4.3 G/DL
ALKALINE PHOSPHATASE [6]: 317.33 u/L
ASPARTATE AMINOTRANSFERASE [6]: 72 u/L
BLOOD UREA NITROGEN [6]: 9.33 mg/dL
CARBON DIOXIDE [6]: 35 mmol/L
CHOLESTEROL [6]: 65.67 mg/dL
CREATINE PHOSPHOKINASE [6]: 288.33 u/L
CREATININE [6]: 0.15 mg/dL
GLUCOSE [6]: 136.33 mg/dL
LACTATE DEHYDROGENASE [6]: 95.67 u/L
PHOSPHORUS [6]: 11.33 mg/dL
POTASSIUM [6]: 6.01 MEQ/L
SODIUM [6]: 146.17 MEQ/L
TOTAL BILIRUBIN [6]: 0.1 mg/dL
TOTAL PROTEIN [6]: 6.23 G/DL
URIC ACID [6]: 1 mg/dL
ABSOLUTE BASOPHIL [7]: 0 CELLS/uL
ABSOLUTE EOSINOPHIL [7]: 0 CELLS/uL
ABSOLUTE LYMPHOCYTE [7]: 13779.33 CELLS/uL
ABSOLUTE MONOCYTE [7]: 115 CELLS/uL
ABSOLUTE SEGMENTED NEUTROPHIL [7]: 2472.33 CELLS/uL
BASOPHIL [7]: 0%
EOSINOPHIL [7]: 0%
ERYTHROCYTE COUNT [7]: 6.39 x10E6/uL
HEMATOCRIT [7]: 35.97%
HEMOGLOBIN [7]: 13.47 G/DL
LEUKOCYTE COUNT [7]: 16.37 x10E3/uL
LYMPHOCYTE [7]: 84.33%
MEAN CORPUSCULAR HEMOGLOBIN [7]: 21.13 pg
MEAN CORPUSCULAR HEMOGLOBIN CONCENTRATION [7]: 37.47 G/DL
MEAN CORPUSCULAR VOLUME [7]: 56.37 fL
MONOCYTE [7]: 0.67%
NEUTROPHIL [7]: 15%
NUCLEATED RED BLOOD CELLS [7]: 0 /100WBC
PLATELET COUNT [7]: 941 x10E3/uL
ALANINE AMINOTRANSFERASE [8]: 51 u/L
ALKALINE PHOSPHATASE [8]: 319.33 u/L
ASPARTATE AMINOTRANSFERASE [8]: 77.33 u/L
BLOOD UREA NITROGEN [8]: 14 mg/dL
CHLORIDE [8]: 99.67 MEQ/L
CHOLESTEROL [8]: 64.33 mg/dL
CREATINE PHOSPHOKINASE [8]: 271.33 u/L
CREATININE [8]: 0.23 mg/dL
GLUCOSE [8]: 175 mg/dL
LACTATE DEHYDROGENASE [8]: 113 u/L
LIPASE [8]: 20.33 u/L
PHOSPHORUS [8]: 12.13 mg/dL
POTASSIUM [8]: 5.75 MEQ/L
TOTAL BILIRUBIN [8]: 0.13 mg/dL
TOTAL PROTEIN [8]: 6.1 G/DL
URIC ACID [8]: 1.3 mg/dL
